Counter-ions that a name gives are not always drawn.
What was measured:
[1] = system: Charles River male albino mice; assay: Writhing Assay (PBQ-induced writhing, analgesic activity); assay type: in vivo; conditions: Intragastric, 30 mg per kilogram of body weight 25 min before PBQ i.p., writhes equal to or less than one-half the control median; for responders at 30 mg/kg: Mus musculus, po, 25 min, read-out: number of mice out of nine or ten in which a test compound produced analgesia (converted)
Description: The Writhing Assay is one of the most widely-used experimental procedures for measuring the analgesic activity of different narcotic and nonnarcotic analgesic agents, and involves the continuous, chemically-induced pain of visceral origin to an animal, such as a mouse or rat. [Gyires et al., Arch. int. Pharmacodyn, 267, 131-140 (1984); […] al., Fed. Proc., 15, 494 (1956); Koster et al., Fed. Proc., 18, 412 (1959); and Witken et al., J. Pharmacol. exp. Ther., 133, 400-408 (1961).] Chemicals which may be used to induce this pain include phenylbenzoquinone (PBQ) and acetic acid. As a result of the chemical irritation to the animal, a characteristic stretching and writhing of the animal (dorsiflexion of the animal's back, extension of its hindlimbs and the strong contraction of its abdominal musculature) will generally occur. […] Drugs which reduce the number of writhes of the animal appear to restore the normal nociceptive threshold of the animal. Charles River male albino mice, weighing 20 to 30 grams were used in this assay. Twenty-five minutes after intragastric administration to nine or ten mice of 30 mg per kilogram of body weight of a compound of the present invention ("test compound"), […] of body weight of a 0.025% w/v solution of PBQ was injected intraperitoneally into each mouse. Ten mice which were given saline in place of a test compound of the invention were used as a control group. Five minutes later, each mouse was individually placed into a glass beaker for observation, and the number of writhes occurring during the following ten-minute period was counted. A test compound was considered to have produced analgesia in a mouse if, in accordance with the conditions set forth above, and under the test criteria employed for this assay, after the administration of 30 mg per kilogram of body weight of a compound of the present invention to the mouse, the number of writhes elicited by a mouse injected with PBQ was equal to, or less than, one-half the median number of writhes recorded for the saline-treated control group of mice that day, as described by Taber in "Predictive Value of Analgesic Assays in Mice and Rats," Advances in Biochemical Psychopharmacology, 8, 191 (1974). […] If this initial screening dose of the test compound produced analgesia in seven of nine or ten mice, then the effect of additional doses of the test compound on the writhing response was evaluated, and then the ED50 value (that dose of a compound which produced analgesia in 50% of the mice to which the compound was administered) was generally calculated. A maximum likelihood function was used to determine the ED50 value. (The slopes of the dose-response curves for all test compounds analyzed were compared as described by Tallarida and Murray, Manual of Pharmacologic Calculations, Page 11 (Springer Verlag, New York, 1981)). The results for the particular compounds of the present invention analyzed in this assay, and discussed in the examples identified below which correspond thereto, are presented in Table 1 hereinbelow. The compounds of the present invention which were tested in this assay, and for which results are presented in Table 1, correspond to the particular examples specified in Table 1. The fractions indicate the number of mice out of nine or ten in which a test compound produced analgesia, and the whole numbers are the calculated ED50 values.

[2] = system: prostaglandin E2 -induced contractions of segments of guinea pig ileum; assay: Prostaglandin (PGE) Antagonism Assay; assay type: cell-based; conditions: dose ratio of prostaglandin E2 EC50 doses with/without test compound, initial concentration 3 micromolar
Method: In order to determine the effectiveness of several of the compounds of the present invention ("test compounds") as prostaglandin E2 antagonists,a prostaglandin antagonism assay was conducted, as described below, to determine the ability of these compounds to inhibit prostaglandin E2 -induced contractions of segments of guinea pig ileum. […] Male albino guinea pigs weighing 200 to 500 grams were sacrificed by cervical dislocation. The ilea were then quickly removed from the guinea pigs and placed in a modified Tyrode solution, a solution which is known to those skilled in the art, containing one-half of the usual amount of magnesium ions. Segments of ileum about 2 cm long were then cut and mounted in a 10-mL tissue bath containing the modified Tyrode solution. The solution was maintained at 37° C. and aerated with a gaseous mixture of 95% oxygen and 5% carbon dioxide. Data for a control prostaglandin E2 dose response curve plotting concentration of prostaglandin E2 versus the intensity of contractions, detected isotonically, was then obtained by experimentally adjusting the dose of the prostaglandin E2 being injected into the tissue bath, in a manner known by those of skill in the art. Solutions or suspensions containing an initial concentration (3 micromolar) of a test compound in modified Tyrode solution ("test solutions/suspensions") were then separately substituted for the control bath solution. Each test solution/suspension was then kept in constant contact with the ileum tissue, except for brief periods to drain the bath in preparation for rinsing with fresh test solution/suspension. A second prostaglandin E2 dose response curve was then generated for prostaglandin E2 in the presence of a test compound. A dose ratio (DR) of EC50 doses was then calculated from the results of each test in a manner known by those of skill in the art. A control dose response curve (DRC) is produced in isolated segments of guinea pig ileum mounted in an automated apparatus with six concentrations of prostaglandin E2. A solution or suspension of test compound is substituted for the control bathing solution and is incubated for thirty minutes. An additional prostaglandin E2 dose response curve is produced in the presence of the test compound. A dose ratio is calculated from the EC50 values obtained from duplicate replications on each concentration of the test compound. […] The results of this prostaglandin antagonism assay are presented in Table 2 below in terms of their dose ratio. The compounds of the present invention which were tested in this assay, and for which results are presented in Table 2, correspond to the particular examples specified in Table 2.

Compound | responders at 30 mg/kg [1] [%] | Dose Ratio [2] | number of mice out of nine or ten in which a test compound produced analgesia [1]
O=C(CCc1cccnc1)N1CCN(C(=O)N2Cc3ccccc3Oc3ccc(Cl)cc32)CC1 [Example 33, 1-[(8-chlorodibenz[b,f][1,4]oxazepin-10(11H)-yl)carbonyl]-4-[(1-oxo-3-(3-pyridinyl)propyl]piperazine, monohydrochloride] | 80 | 6.7 | 
Cl.O=C(N1CCN(CCc2ccccc2)CC1)N1Cc2ccccc2Oc2ccc(Cl)cc21 [Example 40, 8-Chloro-10,11-dihydro-10-[[4-(2-phenylethyl)-1-piperazinyl]carbonyl]dibenz[b,f][1,4]oxazepine, monohydrochloride] | 20 | 4.1 | 
O=C(N1CCN(CCc2ccccc2)CC1)N1Cc2ccccc2Oc2ccccc21 [Example 41, 10,11-dihydro-10-[[4-(2-phenylethyl)-1-piperazinyl]carbonyl]dibenz[b,f][1,4]oxazepine, monohydrochloride] | 100 | 2.6 | 
Cl.O=C(N1CCN(c2ccccc2)CC1)N1Cc2ccccc2Oc2ccc(Cl)cc21 [Example 43, 8-chloro-10,11-dihydro-10-[(4-phenyl-1-piperazinyl)carbonyl]dibenz[b,f][1,4]oxazepine, hydrochloride] | 10 | 0.8 | 
Cl.O=C(N1CCN(Cc2ccsc2)CC1)N1Cc2ccccc2Oc2ccc(Cl)cc21 [Example 47, 8-chloro-10,11-dihydro-10-[[4-(3-thienylmethyl)-1-piperazinyl]carbonyl]dibenz[b,f][1,4]oxazepine, monohydrochloride] | 70 | 2.9 | 
Cl.O=C(N1CCN(Cc2cccs2)CC1)N1Cc2ccccc2Oc2ccc(Cl)cc21 [Example 54, 8-chloro-10,11-dihydro-10-[[4-(2-thienylmethyl)-1-piperazinyl]carbonyl]dibenz[b,f][1,4]oxazepine, monohydrochloride] | 60 | 2.4 | 
Cl.O=C(Cc1cccnc1)N1CCN(C(=O)N2Cc3ccccc3Oc3ccc(Cl)cc32)CC1 [Example 56, 1-[(8-chlorodibenz[b,f][1,4]oxazepin-10(11H)-yl)carbonyl]-4-(3-pyridinylacetyl)piperazine, monohydrochloride] | 50 | 3.3 | 
Cl.O=C(c1cccnc1)N1CCN(C(=O)N2Cc3ccccc3Oc3ccc(Cl)cc32)CC1 [Example 58, 1-[(8-chlorodibenz[b,f][1,4]oxazepin-10(11H)-yl)carbonyl]-4-(3-pyridinylcarbonyl)piperazine, hydrochloride] | 70 | 6.6 | 
Cl.O=C(N1CCCNCC1)N1Cc2ccccc2Oc2ccc(Cl)cc21 [Example 61, 8-chloro-10-[(hexahydro-1H-1,4-diazepin-1-yl)carbonyl]-10,11-dihydrodibenz[b,f][1,4]oxazepine, hydrochloride] | 60 | 4.8 | 
Cl.O=C(N1CCN(Cc2ccco2)CC1)N1Cc2ccccc2Oc2ccc(Cl)cc21 [Example 65, 8-chloro-10-[[4-(2-furanylmethyl)-1-piperazinyl]carbonyl]-10,11-dihydrodibenz[b,f][1,4]oxazepine, monohydrochloride] | 40 | 8.4 | 
CCN(CC)CCC1=CCN(C(=O)N2Cc3ccccc3Oc3ccc(Cl)cc32)CC1.Cl [Example 67, 8-chloro-10-[[4-[2-(diethylamino)ethyl]-3,6-dihydro-1(2H)-pyridinyl]carbonyl]-10,11-dihydrobenz[b,f][1,4]oxazepine, hydrochloride] |  | 10.2 | 6/10

Reference: patent US5354747A, “2-, 3-, 4-, 5-, 6-, 7-, 8-, 9- and/or 10-substituted dibenzoxazepine and dibenzthiazepine compounds, pharmaceutical compositions and methods of use” (G. D. Searle & Co., priority 1993, dated 1994)
